Data from PMC6759763, “Porphyromonas gingivalis Tyrosine Phosphatase Php1 Promotes Community Development and Pathogenicity” (mBio, 2019).

Legend:
[1] = target: T1, FPtk1 (Porphyromonas gingivalis, UniProt B2RKZ8); details: 5 mM ATP, 1 h; Php1 as phosphoacceptor
T1 construct: gene PGN_1524

[2] = target: T2, Php1 (Porphyromonas gingivalis, UniProt B2RKZ9); set-up: gene PGN_1525; details: 50 mM pNPP, pH 8.0, 37 °C, 1 mM MnCl2; also inhibits with phosphotyrosine as substrate
[3] = target: T3, Ltp1 (Porphyromonas gingivalis, UniProt B2RI15); experiment: phosphatase inhibition, pNPP hydrolysis; format: biochemical; details: pNPP as substrate; DMSO vehicle
T3 construct: gene PGN_0491
T3 sequence (B2RI15 entry or part of it): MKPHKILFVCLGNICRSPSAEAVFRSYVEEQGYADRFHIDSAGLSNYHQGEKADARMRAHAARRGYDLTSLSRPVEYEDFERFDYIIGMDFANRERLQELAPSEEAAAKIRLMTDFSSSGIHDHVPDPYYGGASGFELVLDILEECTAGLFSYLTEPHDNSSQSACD

[4] = target: T2, Php1; experiment: p-nitrophenol release ([…] nm); format: biochemical; set-up: gene PGN_1525; php1 coding region, GST-tagged (pGEX-4T-1) or His-tagged (pLATE51), E. coli BL21(DE3) Star; 247 residues, 28 kDa; details: 50 mM pNPP, pH 8.0, 37 °C, 1 mM MnCl2
[5] = target: T2, Php1; set-up: gene PGN_1525; details: 200 μM phosphotyrosine, pH 8.0, 37 °C, 1 mM MnCl2

T2 sequence (B2RKZ9 entry or part of it): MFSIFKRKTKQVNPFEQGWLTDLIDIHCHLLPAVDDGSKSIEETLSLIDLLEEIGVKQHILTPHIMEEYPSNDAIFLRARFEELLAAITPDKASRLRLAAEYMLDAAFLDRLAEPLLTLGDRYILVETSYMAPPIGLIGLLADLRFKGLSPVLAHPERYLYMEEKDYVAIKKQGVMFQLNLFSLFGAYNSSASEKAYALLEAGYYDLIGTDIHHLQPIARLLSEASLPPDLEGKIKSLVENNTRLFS
T1 sequence (B2RKZ8 entry or part of it): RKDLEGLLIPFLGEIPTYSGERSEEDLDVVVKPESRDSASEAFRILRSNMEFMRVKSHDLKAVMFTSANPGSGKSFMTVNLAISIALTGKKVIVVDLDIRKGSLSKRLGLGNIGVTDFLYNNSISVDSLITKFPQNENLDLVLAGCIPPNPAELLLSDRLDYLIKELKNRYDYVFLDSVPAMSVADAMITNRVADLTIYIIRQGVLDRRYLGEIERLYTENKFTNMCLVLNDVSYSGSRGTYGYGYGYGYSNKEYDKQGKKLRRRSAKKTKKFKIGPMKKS

**Q.** With Nc1ncnc2c1ncn2[C@@H]1O[C@H](COP(=O)(O)OP(=O)(O)OP(=O)(O)O)[C@@H](O)[C@H]1O [ATP] as the molecule, how does the “anti-phosphotyrosine immunoblot of Php1 phosphorylation” value [1] read?
**A.** Tyrosine phosphorylation of Php1 increased after incubation with FPtk1 in the presence of ATP

**Q.** How did the inhibition [2] turn out when [O]=[V]([OH])([OH])[OH] [Na3VO4, sodium orthovanadate] was run?
**A.** (pNPP) was inhibited by the tyrosine phosphatase inhibitor Na3VO4

**Q.** How did the “% activity relative to no inhibitor” value [3] turn out when Nc1ccc(C(=O)O)cc1 [pABA, para-amino benzoic acid] was run?
**A.** Both H2O2 and pABA inhibited Ltp1 but not Php1

**Q.** How did the “p-nitrophenol release (405 nm)” value [4] turn out when O=[N+]([O-])c1ccc(OP(=O)(O)O)cc1 [pNPP, p-nitrophenyl phosphate] was run?
**A.** Php1 phosphatase activity on p-nitrophenyl phosphate (pNPP)

**Q.** How did the “malachite green phosphate release” value [5] turn out when N[C@@H](Cc1ccc(OP(=O)(O)O)cc1)C(=O)O [phosphotyrosine] was run?
**A.** Php1 was most active against phosphotyrosine
